Data from PubChem BioAssay AID1963850 (Molecular Pharmacology Branch, DTP, NCI, 2024).

System: 192522-019-R-J2-PDC complex tumor spheroid viability
Assay: Anticancer human tumor 192522-019-R-J2-PDC patient-derived colon adenocarcinoma cell line growth inhibition [POLQ]
Details: for IC50: curve of first compound; for viability, T/C: stronger effect = lower value
Procedure: Multicellular complex tumor spheroid response to Polymerase (POL) inhibitors (novobiocin, ART-558, RP6685) in combination with a variety of drugs and investigational agents in selected tumor cell lines
The POL inhibitors (novobiocin, ART-558, and RP6685) were evaluated both individually and in combination with standard of care and investigational anticancer small molecules within a complex spheroid model of solid tumors. . Complex spheroids include a stromal component modeled by human endothelial cells (HUVEC) and fibroblasts modeled by human mesenchymal stem cells (MSCs). The concentration ranges selected for each drug and investigational agent were based upon clinically achievable concentrations if the clinical Cmax of the agent was known.
Compounds. The drugs and investigational agents: novobiocin (NSC847541), ART-558 (NSC835418), RP-6685 (NSC848927), peposertib (NSC802822), ceralasertib (NSC780249), elimusertib (NSC800525), camonsertib (NSC841442), AZD-1390 (NSC803789), olaparib (NSC753686), talazoparib (NSC767125), rucaparib (NSC756644), sotorasib (NSC818433), MRTX-1133 (NSC836407), SN-38 (NSC673596), topotecan (NSC609699), epotoside (NSC141540), doxorubicin (NSC123127), gemcitabine (NSC613327), 5-fluorouracil (NSC19893), paclitaxel (NSC125973), vemurafenib (NSC761431), MSA-2 (NSC828583), SN-011 (NSC837082), adavosertib (NSC754352), prexasertib (NSC758257), carboplatin (NSC241240) and oxaliplatin (NSC266046), were obtained from the National Cancer Institute (NCI) Developmental Therapeutics Program Chemical Repository (21). The FDA-approved anticancer drug set is available from the Developmental Therapeutics Program at https://dtp.cancer.gov/organization/dscb/obtaining/. […] The stock solutions were prepared in dimethyl sulfoxide (DMSO, Sigma-Aldrich, St. Louis, MO, cat. D2650), except for the platinum compounds which were prepared in saline (Quality Biological, Gaithersburg, MD, cat. 114-055-101), at 800-fold the tested concentration and stored at -70 degrees C prior to their use. All drugs and investigational agents were tested over a range starting from a high concentration at or near the clinical Cmax and decreasing in half-log increments. If the clinical Cmax for an agent had not been determined, the highest concentration tested was 10 microM, except for SN-38, which was tested at a high concentration of 1 microM.
Cell Culture. All cells were maintained in an incubator at 37 degrees C and 5% CO2 with 95% humidity. The PDC lines were cultured according to standard operating procedures established by the NCI PDMR (https://pdmr.cancer.gov). Table 3 of the manuscript, lists the cell lines along with the number of the three cell types plated to form the mct-spheroids and media for tumor cell growth. After thawing, all PDC lines, except 997537-175-T-J1-PDC and 415267-285-R-J2-PDC, were cultured in Matrigel-coated flasks prepared with a working solution of 1X Ham's F-12 nutrient mix, without supplementation (Thermo Fisher Scientific, cat. 11765054), 100 U/mL penicillin-streptomycin (Thermo Fisher Scientific, cat. 15140122), and 2.5% Matrigel (Corning Inc., Corning, NY, cat. 354248) for the first three passages. The two PDC lines 997537-175-T-J1-PDC and 415267-285-R-J2-PDC were cultured on uncoated flasks. The 857933-349-R-J2-PDC line was cultured in 6C/Colon 1B media containing advanced DMEM/F-12 (Thermo Fisher Scientific, cat. 12634028), 10 mM HEPES (Thermo Fisher Scientific, cat. 15630080), 1X GlutaMAX supplement (Thermo Fisher Scientific, cat. 35050061), 0.1 mg/mL primocin (InvivoGen, San Diego, CA, cat. ant-pm-2), 10% defined fetal bovine serum, heat inactivated (HyClone Laboratories Inc., Logan, UT, cat. SH30070.03HI), 50% L-WRN conditioned media (ATCC, cat. CRL-3276), 1.25 mM N-Acetyl-L-cysteine (Sigma-Aldrich, cat. A9165), 10 mM nicotinamide (Sigma-Aldrich, cat. N0636), 1X B-27 supplement (Thermo Fisher Scientific, cat. 17504044), 1X N-2 supplement (Thermo Fisher Scientific, cat. […]

[1] = second compound 0.0316 µM, first compound 0.0316 µM
[2] = second compound 0.0316 µM, first compound 0.1 µM
[3] = second compound 0.0316 µM, first compound 0.316 µM
[4] = second compound 0.0316 µM, first compound 1 µM
[5] = second compound 0.0316 µM, first compound 3.16 µM
[6] = second compound 0.0316 µM, first compound 10 µM
[7] = second compound 0.1 µM, first compound 0.0316 µM
[8] = second compound 0.1 µM, first compound 0.1 µM
[9] = second compound 0.1 µM, first compound 0.316 µM
[10] = second compound 0.1 µM, first compound 1 µM
[11] = second compound 0.1 µM, first compound 3.16 µM
[12] = second compound 0.1 µM, first compound 10 µM
[13] = second compound 0.316 µM, first compound 0.0316 µM
[14] = second compound 0.316 µM, first compound 0.1 µM
[15] = second compound 0.316 µM, first compound 0.316 µM
[16] = second compound 0.316 µM, first compound 1 µM
[17] = second compound 0.316 µM, first compound 3.16 µM
[18] = second compound 0.316 µM, first compound 10 µM
[19] = second compound 1 µM, first compound 0.0316 µM
[20] = second compound 1 µM, first compound 0.1 µM
[21] = second compound 1 µM, first compound 0.316 µM
[22] = second compound 1 µM, first compound 1 µM
[23] = second compound 1 µM, first compound 3.16 µM
[24] = second compound 1 µM, first compound 10 µM
[25] = second compound 3.16 µM, first compound 0.0316 µM
[26] = second compound 3.16 µM, first compound 0.1 µM
[27] = second compound 3.16 µM, first compound 0.316 µM
[28] = second compound 3.16 µM, first compound 1 µM
[29] = second compound 3.16 µM, first compound 3.16 µM
[30] = second compound 3.16 µM, first compound 10 µM
[31] = second compound 10 µM, first compound 0.0316 µM
[32] = second compound 10 µM, first compound 0.1 µM
[33] = second compound 10 µM, first compound 0.316 µM
[34] = second compound 10 µM, first compound 1 µM
[35] = second compound 10 µM, first compound 3.16 µM
[36] = second compound 10 µM, first compound 10 µM
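Also: spheroids exposed to drugs for seven days before reading.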
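For viability, T/C in this document: 100% = DMSO vehicle control viability in luminescence.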

**Q.** With COc1cccc2c1C(=O)c1c(O)c3c(c(O)c1C2=O)CC(O)(C(=O)CO)CC3OC1CC(N)C(O)C(C)O1 (centres undefined) + Nc1ccc(C#CCN(C(=O)Cc2ncc(C(F)(F)F)cc2C(F)(F)F)c2ccc(F)cc2)nn1 as the compound, how does the IC50 (second compound 0.0316 µM) read?
**A.** > 10 µM

**Q.** And the IC50 (second compound 0.1 µM)?
**A.** > 10 µM

**Q.** What about the IC50 (second compound 0.316 µM) of the same compound?
**A.** > 10 µM

**Q.** What about the IC50 (second compound 1 µM) of the same compound?
**A.** > 10 µM

**Q.** And the IC50 (second compound 3.16 µM)?
**A.** > 10 µM

**Q.** What about the IC50 (second compound 10 µM) of the same compound?
**A.** > 10 µM

**Q.** What about the viability, T/C [1] of the same compound?
**A.** 100%

**Q.** And the viability, T/C [2]?
**A.** 85%

**Q.** And the viability, T/C [3]?
**A.** 79.4%

**Q.** What about the viability, T/C [4] of the same compound?
**A.** 75.7%

**Q.** What about the viability, T/C [5] of the same compound?
**A.** 74%

**Q.** What about the viability, T/C [6] of the same compound?
**A.** 58.9%

**Q.** What about the viability, T/C [7] of the same compound?
**A.** 108%

**Q.** And the viability, T/C [8]?
**A.** 80.4%

**Q.** What about the viability, T/C [9] of the same compound?
**A.** 81.6%

**Q.** What about the viability, T/C [10] of the same compound?
**A.** 79.9%

**Q.** And the viability, T/C [11]?
**A.** 68.4%

**Q.** What about the viability, T/C [12] of the same compound?
**A.** 62.4%

**Q.** And the viability, T/C [13]?
**A.** 100%

**Q.** What about the viability, T/C [14] of the same compound?
**A.** 89%

**Q.** And the viability, T/C [15]?
**A.** 80.1%

**Q.** And the viability, T/C [16]?
**A.** 81.5%

**Q.** And the viability, T/C [17]?
**A.** 73.5%

**Q.** What about the viability, T/C [18] of the same compound?
**A.** 62.7%

**Q.** What about the viability, T/C [19] of the same compound?
**A.** 88.6%

**Q.** And the viability, T/C [20]?
**A.** 81.9%

**Q.** What about the viability, T/C [21] of the same compound?
**A.** 81.2%

**Q.** And the viability, T/C [22]?
**A.** 71.2%

**Q.** And the viability, T/C [23]?
**A.** 67.8%

**Q.** And the viability, T/C [24]?
**A.** 58%

**Q.** What about the viability, T/C [25] of the same compound?
**A.** 96.7%

**Q.** And the viability, T/C [26]?
**A.** 85%

**Q.** What about the viability, T/C [27] of the same compound?
**A.** 87.9%

**Q.** What about the viability, T/C [28] of the same compound?
**A.** 75.4%

**Q.** What about the viability, T/C [29] of the same compound?
**A.** 69.2%

**Q.** And the viability, T/C [30]?
**A.** 58.1%

**Q.** What about the viability, T/C [31] of the same compound?
**A.** 92.4%

**Q.** And the viability, T/C [32]?
**A.** 81.2%

**Q.** What about the viability, T/C [33] of the same compound?
**A.** 94.7%

**Q.** And the viability, T/C [34]?
**A.** 71.5%

**Q.** What about the viability, T/C [35] of the same compound?
**A.** 60.4%

**Q.** And the viability, T/C [36]?
**A.** 49.1%

**Q.** Which IC50 (second compound 0.0316 µM) does the source give for CCc1cc2c(N3CCc4c(cc(Cn5ccnc5)cc4-c4cn(C)nc4C(F)(F)F)C3=O)ccnc2c(OC)n1 + COC1C(OC(N)=O)C(O)C(Oc2ccc3c(O)c(NC(=O)c4ccc(O)c(CC=C(C)C)c4)c(=O)oc3c2C)OC1(C)C here?
**A.** > 10 µM

**Q.** What about the IC50 (second compound 0.1 µM) of the same compound?
**A.** > 10 µM

**Q.** What about the IC50 (second compound 0.316 µM) of the same compound?
**A.** > 10 µM

**Q.** What about the IC50 (second compound 1 µM) of the same compound?
**A.** > 10 µM

**Q.** And the IC50 (second compound 3.16 µM)?
**A.** > 10 µM

**Q.** What about the IC50 (second compound 10 µM) of the same compound?
**A.** > 10 µM

**Q.** And the viability, T/C [1]?
**A.** 98.8%

**Q.** What about the viability, T/C [2] of the same compound?
**A.** 89.9%

**Q.** What about the viability, T/C [3] of the same compound?
**A.** 86.5%

**Q.** What about the viability, T/C [4] of the same compound?
**A.** 89.3%

**Q.** What about the viability, T/C [5] of the same compound?
**A.** 88.8%

**Q.** And the viability, T/C [6]?
**A.** 63%

**Q.** And the viability, T/C [7]?
**A.** 101%

**Q.** What about the viability, T/C [8] of the same compound?
**A.** 88.9%

**Q.** What about the viability, T/C [9] of the same compound?
**A.** 93.7%

**Q.** What about the viability, T/C [10] of the same compound?
**A.** 84.7%

**Q.** And the viability, T/C [11]?
**A.** 78.5%

**Q.** And the viability, T/C [12]?
**A.** 67.7%

**Q.** And the viability, T/C [13]?
**A.** 101%

**Q.** What about the viability, T/C [14] of the same compound?
**A.** 93.7%

**Q.** What about the viability, T/C [15] of the same compound?
**A.** 89.9%

**Q.** What about the viability, T/C [16] of the same compound?
**A.** 90.9%

**Q.** What about the viability, T/C [17] of the same compound?
**A.** 68.3%

**Q.** And the viability, T/C [18]?
**A.** 71.2%

**Q.** And the viability, T/C [19]?
**A.** 101%

**Q.** What about the viability, T/C [20] of the same compound?
**A.** 94%

**Q.** And the viability, T/C [21]?
**A.** 85.4%

**Q.** And the viability, T/C [22]?
**A.** 96.6%

**Q.** What about the viability, T/C [23] of the same compound?
**A.** 76.7%

**Q.** And the viability, T/C [24]?
**A.** 67.8%

**Q.** What about the viability, T/C [25] of the same compound?
**A.** 106%

**Q.** What about the viability, T/C [26] of the same compound?
**A.** 102%

**Q.** What about the viability, T/C [27] of the same compound?
**A.** 92%

**Q.** What about the viability, T/C [28] of the same compound?
**A.** 91.9%

**Q.** And the viability, T/C [29]?
**A.** 90.5%

**Q.** And the viability, T/C [30]?
**A.** 68.3%

**Q.** And the viability, T/C [31]?
**A.** 97.5%

**Q.** What about the viability, T/C [32] of the same compound?
**A.** 88.7%

**Q.** What about the viability, T/C [33] of the same compound?
**A.** 95.6%

**Q.** And the viability, T/C [34]?
**A.** 92.1%

**Q.** And the viability, T/C [35]?
**A.** 87.3%

**Q.** What about the viability, T/C [36] of the same compound?
**A.** 74.7%
